Reference: patent US20240327488A1, “CONNEXIN-46 PEPTIDE MODULATOR” (UNIVERSIDAD DEL DESARROLLO, priority 2023, published 2024)

Tests used:
Format in all cases: cell-based, human
[1] = tested on: Tumor spheres formed by Hela cells transfected with Cx46GFP; test: Cell viability of tumor spheres (7-AAD uptake)
Procedure: Tumor spheres formed by Hela cells transfected with Cx46GFP were grown for 14 days. […] TAT-Cx46-Src was added every 3 days (every time that culture media was replaced). At day 14th, 10 mM 7-AAD was added to the extracellular media.

[2] = tested on: Akt phosphorylation in S473; test: Western blot of Akt phosphorylation at S473
Procedure: (A) Representative Western blot showing, the levels of phosphorylation at S473 (pAKT), total AKT (AKT) and loading control (actin). Different concentrations of TAT-Cx46-Src were tested, ranging between […]. (B) Plot showing the relative levels of pAKT with respect to total AKT at different concentrations of TAT-Cx46-Src. (n=3).
Western blots: Cells were washed three times with phosphate buffered saline
(PBS) pH: 7.4 and then lysed with RIPA buffer (150 mM NaCl, 20 mM Tris pH: 7.4; 0.5% Sodium Desoxycholate, 0.1% Sodium Dodecyl Sulfate (SDS), 1% Nonidet P-40 and a protease inhibitor cocktail tablet). Proteins were quantified using the Qubit™ protein Assay Kit in a Qubit™ Fluorometer following the manufacturer's instructions (ThermoFisher). Subsequently, Laemli buffer (4×) (62.5 mM Tris pH 6.8; 25% glycerol, 2% SDS, 0.01% bromophenol blue and 5% β-mercaptoethanol) was added to the cell lysate and was heated at 95° C. for 3 min, in a thermoblock. About 50 μg of proteins were loaded into each well of a 10% polyacrylamide gel under denaturing conditions (SDS-PAGE). Then the proteins were transferred to a polyvinylidene difluoride (PVDF) membrane by wet transfer for 2 h at 100 V in Tris-Glycine 20% methanol buffer. The membranes were blocked with 5% skimmed milk in Buffer Tris and 0.05% Tween 20 (T-TBS) for 1 h at room temperature under shaking. […]

HeLa Cx46-GFP cells = test: Tumor sphere formation on non-adherent surface
Description: (B) Tumor spheres growing is a technique used to determine the cancer stem cells capacity. Hela cells transfected with GFP for a monolayer of cells when they a seeded in a non-adherent surface, and moreover they died after 14 days in culture. However, Hela cells transfected with Cx46GFP do form tumor spheres which survive at last for 14 days. […] (D) graphical comparison between the size of tumor spheres at day 14 under control conditions (outer line) and treated with the peptide (inner line). Plot show the quantification of the tumor sphere size between time 0 and day 14, both under control condition (upper line) and with the peptide (lower line).
Mimetic peptides of the Cx46 domains that would interact with c-Src, Akt or PI3k were designed, synthesized and evaluated for their ability to inhibit the formation of tumor spheres in vitro in Hela cells overexpressing or not Cx46. Briefly, the experiments were done with the following protocols.
Cell line cultures: The HeLa cell line was grown in Dulbecco's Modified Eagle Medium (DMEM) supplemented with 10% fetal bovine serum (FBS) and 1% penicillin 10,000 U/mL, streptomycin sulfate […] (P/S) at 37° C., 5% CO2 and 95% humidity. Every 2 weeks the presence of mycoplasma was analyzed, by means of staining with DAPI. Infected cells were treated with BioMyc-1 (100×) for two weeks.
Cell Transfection: Cells were transfected using Lipofectamine 2000 (Invitrogen). For this HeLa cell cultures were grown to reach 60% confluence. Cells are washed with serum-free DMEM twice and finally exposed to OptiMem™ (Invitrogen) plus 1 μg cDNA. The cDNA for GFP-linked human Cx46 was purchased from Promega. The plasmid also has a resistance to G418, which is an antibiotic that serves for the selection of cells that stably express Cx46-GFP. Cx46 expression was monitored by Western blot and immunofluorescence analysis.
However, Hela cells transfected with Cx46-GFP form large tumor spheres that remain alive for at least 14 days (FIG. 2B; Annex 1). […]

TAT-Cx46-Src: Mimetic peptide of the Cx46 404-410 C-terminal segment (MHQPPLP) fused with the cell-penetrating TAT peptide; blocks the Cx46/c-Src interaction (GRKKRRQRRRPQMHQPPLP)
uptake of 7-AAD dye ([1]; day 14, 10 mM 7-AAD in extracellular media, 100 mM peptide every 3 days, n=3): shown uptake of this Dye
death of cells in tumor spheres (cell viability studies) ([1]; treatment with 100 μM, HeLa Cx46-GFP tumor spheres): promotes the death of cells in the center of tumor spheres
cell death of Hela cells Cx46GFP ([1]; tumor spheres grown 14 days, 100 mM added every 3 days, n=3 (FIG. 4)): increase cell death
Akt phosphorylation levels in S473 ([2]; 100 μM, 24-h treatment, HeLa Cx46-GFP cells): strongly decreased
Akt phosphorylation in S473 (pAKT relative to total AKT) ([2]; concentrations ranging between 0-100 mM, n=3 (FIG. 3)): decreased Akt phosphorylation
decrease of the size of tumor spheres (HeLa Cx46-GFP cells; 100 μM, 10 days of treatment, HeLa Cx46-GFP cells): about 43%
tumor sphere size (HeLa Cx46-GFP cells; 100 mM added to the extracellular media every 3 days, Hela Cx46GFP, up to day 14 (FIG. 2C)): reduced tumor sphere size
inhibition of the cancer stem cells (CSC) functional phenotype (HeLa Cx46-GFP cells; Hela cells (FIGS. 2C and D)): strong inhibition
